From BindingDB's records for doi:10.1038/sj.bjp.0701367 (Kyoto University, 1997)

Legend:
[1] = target: T1, Prostaglandin E2 receptor EP3 subtype (Mus musculus, UniProt P30557)
T1 sequence (P30557 whole entry): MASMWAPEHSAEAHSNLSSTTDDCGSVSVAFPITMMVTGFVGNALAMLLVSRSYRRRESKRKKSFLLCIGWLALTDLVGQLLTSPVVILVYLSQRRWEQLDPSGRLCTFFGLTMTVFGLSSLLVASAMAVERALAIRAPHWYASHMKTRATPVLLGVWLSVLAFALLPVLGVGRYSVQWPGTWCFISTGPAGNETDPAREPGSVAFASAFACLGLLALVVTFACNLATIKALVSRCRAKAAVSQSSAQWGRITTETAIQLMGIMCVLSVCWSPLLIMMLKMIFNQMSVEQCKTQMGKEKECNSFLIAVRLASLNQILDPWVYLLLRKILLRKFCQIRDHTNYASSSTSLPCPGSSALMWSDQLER

[2] = target: Prostaglandin F2-alpha receptor (Mus musculus, UniProt P43117)
Sequence of Prostaglandin F2-alpha receptor (P43117 whole entry): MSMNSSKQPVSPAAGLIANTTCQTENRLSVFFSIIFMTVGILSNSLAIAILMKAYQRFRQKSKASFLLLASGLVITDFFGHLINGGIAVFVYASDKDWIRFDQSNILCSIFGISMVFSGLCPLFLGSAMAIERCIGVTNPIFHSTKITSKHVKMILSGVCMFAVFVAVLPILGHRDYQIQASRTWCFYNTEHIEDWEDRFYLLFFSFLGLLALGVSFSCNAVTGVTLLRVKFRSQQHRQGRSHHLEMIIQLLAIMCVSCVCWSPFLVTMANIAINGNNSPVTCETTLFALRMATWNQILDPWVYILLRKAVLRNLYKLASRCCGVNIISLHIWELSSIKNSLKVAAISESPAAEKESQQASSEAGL

[3] = target: Prostaglandin E2 receptor EP4 subtype (Mus musculus, UniProt P32240)
Sequence of Prostaglandin E2 receptor EP4 subtype (P32240 whole entry): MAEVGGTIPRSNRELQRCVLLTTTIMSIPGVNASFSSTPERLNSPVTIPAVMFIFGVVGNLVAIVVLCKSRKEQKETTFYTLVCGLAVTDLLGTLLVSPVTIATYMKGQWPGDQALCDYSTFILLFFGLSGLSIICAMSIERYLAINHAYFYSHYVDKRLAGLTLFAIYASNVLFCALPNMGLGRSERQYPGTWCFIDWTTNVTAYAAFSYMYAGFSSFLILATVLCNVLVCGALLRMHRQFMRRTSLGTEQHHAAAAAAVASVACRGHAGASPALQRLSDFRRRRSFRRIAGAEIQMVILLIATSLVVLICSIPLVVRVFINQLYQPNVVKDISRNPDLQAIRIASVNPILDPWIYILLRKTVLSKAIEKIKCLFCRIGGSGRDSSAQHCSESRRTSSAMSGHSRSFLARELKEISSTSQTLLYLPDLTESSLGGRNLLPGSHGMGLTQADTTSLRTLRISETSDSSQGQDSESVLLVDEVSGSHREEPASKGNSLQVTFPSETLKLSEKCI

[4] = target: Prostaglandin E2 receptor EP2 subtype (Mus musculus, UniProt Q62053)
Sequence of Prostaglandin E2 receptor EP2 subtype (Q62053 whole entry): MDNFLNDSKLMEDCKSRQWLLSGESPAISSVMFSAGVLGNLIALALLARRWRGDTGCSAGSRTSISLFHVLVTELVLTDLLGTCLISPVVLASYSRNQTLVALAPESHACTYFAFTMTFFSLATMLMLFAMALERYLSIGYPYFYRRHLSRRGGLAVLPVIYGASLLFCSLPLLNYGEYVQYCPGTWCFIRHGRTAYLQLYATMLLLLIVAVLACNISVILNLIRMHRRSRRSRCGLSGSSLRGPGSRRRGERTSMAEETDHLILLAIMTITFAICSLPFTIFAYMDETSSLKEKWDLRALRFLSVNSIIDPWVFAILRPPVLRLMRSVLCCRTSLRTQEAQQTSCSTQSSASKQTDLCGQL

Thromboxane A2 receptor = target: T2, Thromboxane A2 receptor (Mus musculus, UniProt P30987)
T2 sequence (P30987 whole entry): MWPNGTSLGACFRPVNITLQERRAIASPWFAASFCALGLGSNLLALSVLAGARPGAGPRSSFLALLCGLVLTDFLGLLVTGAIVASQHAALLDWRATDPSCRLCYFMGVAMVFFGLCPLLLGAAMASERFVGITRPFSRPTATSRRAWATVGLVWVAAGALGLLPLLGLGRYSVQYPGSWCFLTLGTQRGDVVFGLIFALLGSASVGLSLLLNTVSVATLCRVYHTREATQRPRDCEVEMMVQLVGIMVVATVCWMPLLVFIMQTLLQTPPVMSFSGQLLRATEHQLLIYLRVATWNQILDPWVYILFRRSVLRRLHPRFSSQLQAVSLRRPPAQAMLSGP

[5] = target: T3, Prostaglandin E2 receptor EP1 subtype (Mus musculus, UniProt P35375)
T3 sequence (P35375 whole entry): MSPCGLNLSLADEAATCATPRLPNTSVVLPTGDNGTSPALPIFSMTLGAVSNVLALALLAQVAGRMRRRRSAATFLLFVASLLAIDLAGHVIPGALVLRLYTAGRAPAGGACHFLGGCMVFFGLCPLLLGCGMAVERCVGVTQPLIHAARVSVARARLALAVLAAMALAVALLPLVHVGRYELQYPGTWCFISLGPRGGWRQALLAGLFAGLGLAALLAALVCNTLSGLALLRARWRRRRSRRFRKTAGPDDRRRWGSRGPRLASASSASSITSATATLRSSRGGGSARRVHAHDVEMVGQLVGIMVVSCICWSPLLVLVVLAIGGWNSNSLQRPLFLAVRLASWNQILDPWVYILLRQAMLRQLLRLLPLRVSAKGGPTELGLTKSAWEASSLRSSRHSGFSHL

Prostacyclin receptor = Prostacyclin receptor (Mus musculus, UniProt P43252)
Sequence of Prostacyclin receptor (P43252 whole entry): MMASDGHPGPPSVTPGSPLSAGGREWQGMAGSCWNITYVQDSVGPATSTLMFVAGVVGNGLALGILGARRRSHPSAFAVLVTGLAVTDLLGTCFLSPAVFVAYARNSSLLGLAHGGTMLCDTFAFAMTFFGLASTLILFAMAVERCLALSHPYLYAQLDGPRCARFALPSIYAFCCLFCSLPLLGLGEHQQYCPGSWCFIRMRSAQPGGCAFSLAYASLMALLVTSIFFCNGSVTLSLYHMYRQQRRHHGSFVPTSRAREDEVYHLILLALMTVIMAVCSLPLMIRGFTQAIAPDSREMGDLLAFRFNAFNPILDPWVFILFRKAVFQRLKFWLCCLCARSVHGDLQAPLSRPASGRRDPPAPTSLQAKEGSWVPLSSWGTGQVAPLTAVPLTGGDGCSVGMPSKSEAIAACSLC

| SMILES | Ki [1] [nM] | Ki [2] [nM] | Ki [3] [nM] | Ki [4] [nM] | Ki (Thromboxane A2 receptor) [nM] | Ki [5] [nM] | Ki (Prostacyclin receptor) [nM] |
| --- | --- | --- | --- | --- | --- | --- | --- |
| CCCCC[C@H](O)/C=C/C1C[C@H]2C[C@H](S2)[C@@H]1C/C=C\CCCC(=O)O (some centres not stated) [STA2] | 23 | 97 | 350 | 220 | 14 |  |  |
| O=C(O)CCC/C=C\C[C@H]1C(=O)C[C@@H](O)[C@@H]1/C=C/[C@@H](O)CCc1ccccc1 [17-PHENYL TRINOR PROSTAGLANDIN E2] | 3.7 | 60 | 1000 |  |  | 14 |  |
| O=C(O)CC/C=C\CC[C@@H]1[C@@H](N2CCCCC2)[C@@H](O)C[C@@H]1OCc1ccc(-c2ccccc2)cc1 [GR 32191] |  |  |  |  | 12 |  |  |
| CC1=C(CCON=C(c2ccccc2)c2cccnc2)c2cccc(OCC(=O)O)c2CC1 [NSC_128021] | 740 |  |  |  |  |  | 47 |
| O=C(O)CCCCCCC1C(=O)CCC1C=CC(O)COc1ccccc1 (configuration not stated) [CAS_80558-61-8] | 0.68 | 124 | 500 |  | 1300 | 120 |  |
| CCCCCC(O)C=CC1CCC(=O)C1CCCCCCC(=O)O (configuration not stated) [PGE1,11-DEOXY] | 1.5 |  | 23 | 45 |  | 600 | 1000 |
| O=C(O)CCC/C=C\C[C@@H]1C(NS(=O)(=O)c2ccccc2)C2CC[C@@H]1C2 (single isomer, unassigned; (+)) [S 145] |  |  |  |  | 0.68 |  |  |
| CCCCC[C@H](O)/C=C/[C@H]1[C@H](O)CC(=O)[C@@H]1C/C=C\CCCC(=O)O [DINOPROSTONE] | 0.85 | 100 |  | 12 |  | 20 |  |
| O=C(O)CCCCCCC1C(=O)CC(O)C1C=CC(O)CCCCCO (configuration not stated) [PGE1,1-OH] | 330 |  | 190 |  |  |  |  |
| CCCCC[C@@H](O)/C=C/[C@H]1[C@H](O)CC(=O)[C@@H]1CCCCCCC(=O)O | 1.1 |  | 2.1 | 10 |  | 36 | 33 |
| CCCCCC(O)c1ccc(C2CCC(=O)C2CCCCCCC(=O)O)cc1 (configuration not stated) [CAS_132836] | 82 |  |  | 240 |  |  |  |
| CC#CCC(C)C(O)C=CC1C(O)CC2Oc3c(CCCC(=O)O)cccc3C21 (configuration not stated) [NSC_2352] | 110 |  |  |  |  |  | 16 |
| CCC#CCC(C)C(O)C#CC1C(O)CC2CC(=CCOCC(=O)O)CC21 (configuration not stated) [CAS_94079-80-8] | 170 |  |  | 1300 |  |  | 10 |
| CCCCC(C)(C)C(O)C=CC1C(O)CC(=O)C1CC=CCCCC(=O)O (configuration not stated) | 1.9 | 350 | 43 | 17 |  |  |  |
| O=C(CCC=CCCC1C(=O)CC(O)C1OCC(O)COc1ccccc1)Oc1ccc(NC(=O)c2ccccc2)cc1 (configuration not stated) [NSC_5311224] | 1.9 |  | 480 |  |  |  |  |
| O=C(O)CCCC=CCC1C(O)CC(O)C1C=CC(O)COc1cccc(C(F)(F)F)c1 (configuration not stated) [CAS_40666-16-8] |  | 3.8 |  |  |  |  |  |
| C[C@H](O)CCCC(O)C=CC1C(O)CC(=O)C1CC=CCCCC(=O)O (some centres not stated) [PGE2,19R(OH)] |  | 1000 |  |  |  |  |  |
| CC#CCC(C)[C@H](O)/C=C/[C@@H]1[C@H]2C/C(=C/CCCC(=O)O)C[C@H]2C[C@H]1O (some centres not stated) | 22 |  | 2300 | 1600 |  | 21 | 11 |
| O=C(O)CCC/C=C\C[C@H]1[C@@H]2CCC(O2)[C@@H]1/C=C/[C@@H](O)COc1ccc(I)cc1 [I-BOP] | 100 | 100 |  | 220 | 0.56 |  |  |
| CCCCC[C@H](O)/C=C/[C@@H]1[C@H]2C/C(=C\CCCC(=O)O)C[C@H]2C[C@H]1O | 31 | 1200 | 2300 | 1600 |  |  | 110 |
| CCCCC[C@H](O)/C=C/C1[C@H](O)C[C@H](O)[C@@H]1C/C=C\CCCC(=O)O (stereo partly drawn) [(Z)-7-[(1R,3R,5S)-3,5-Dihydroxy-2-((E)-(S)-3-hydroxy-oct-1-enyl)-cyclopentyl]-hept-5-enoic acid] | 75 |  |  |  |  | 1300 |  |
| CCCC1([C@@H](O)C/C=C/C2[C@H](O)CC(=O)[C@@H]2CCCCCCC(=O)OC)CCC1 (some centres not stated) [Butaprost (Methyl Ester)] |  |  |  | 110 |  |  |  |
| CCCCC(C)(O)CC=CC1C(O)CC(=O)C1CCCCCCC(=O)OC (configuration not stated) [MISOPROSTOL (Methyl Ester)] | 67 |  | 67 | 250 |  | 120 |  |
| CCCCCC(O)C=CC1C(O)CC2C=C(CCCCC(=O)O)CC21 (configuration not stated) [NSC_5311244] | 31 |  |  | 1000 |  |  | 15 |
| CC(C)Oc1ccc2c(=O)c3cc(C(=O)O)ccc3oc2c1 [CAS_33458-93-4] |  |  |  | 350 |  |  |  |
| CCCCC[C@H](O)/C=C/C1[C@@H](C/C=C\CCCC(=O)O)[C@H]2CO[C@@H]1C2 (some centres not stated) [U46619] |  | 1000 |  |  | 67 |  |  |
| CS(=O)(=O)NC(=O)CCCC=CCC1C(=O)CC(O)C1C=CC(O)COc1ccccc1 (configuration not stated) [CAS_60325-46-4] | 0.6 | 580 |  |  |  | 21 |  |
| CCCCCC(O)CC=C1C(=O)C=CC1CC=CCCCC(=O)O (configuration not stated) [CAS_41598-07-6] | 280 | 47 |  |  |  |  |  |
| O=C(O)CCCCCCc1c(O)[nH]c(=O)n1CCC(O)C1CCCCC1 (configuration not stated) [NSC_3080928] |  | 1700 |  |  |  |  |  |
